From PubChem BioAssay (NCI)
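These data come from cells grown in 96-well plates and exposed to compound for 48 hours at five concentrations. GI50 marks 50% less growth. TGI: total growth inhibition.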

Experiments:
Experiment in all cases: NCI anticancer screen, dose series, 48 h
COLO 205 colon = system: COLO 205 colon
LOX IMVI melanoma = system: LOX IMVI melanoma
MALME-3M melanoma = system: MALME-3M melanoma
NCI-H23 lung = system: NCI-H23 lung
PC-3 prostate = system: PC-3 prostate
UO-31 renal = system: UO-31 renal
KM12 colon = system: KM12 colon
SF-539 CNS = system: SF-539 CNS
SW-620 colon = system: SW-620 colon
UACC-62 melanoma = system: UACC-62 melanoma
MDA-MB-231 breast = system: MDA-MB-231 breast
K-562 leukemia = system: K-562 leukemia
OVCAR-3 ovarian = system: OVCAR-3 ovarian
M14 melanoma = system: M14 melanoma
HCT-15 colon = system: HCT-15 colon
HL-60(TB) leukemia = system: HL-60(TB) leukemia
ACHN renal = system: ACHN renal
HOP-92 NSCLC = system: HOP-92 NSCLC
MDA-MB-435 = system: MDA-MB-435
EKVX NSCLC = system: EKVX NSCLC
U251 CNS = system: U251 CNS
SR leukemia = system: SR leukemia
NCI-H522 lung = system: NCI-H522 lung
HCT-116 colon = system: HCT-116 colon
MCF7 breast = system: MCF7 breast
HOP-62 NSCLC = system: HOP-62 NSCLC
OVCAR-4 ovarian = system: OVCAR-4 ovarian
HS 578T breast = system: HS 578T breast
TK-10 renal = system: TK-10 renal
HT29 colon = system: HT29 colon
RXF 393 renal = system: RXF 393 renal
IGROV1 ovarian = system: IGROV1 ovarian
SK-MEL-2 melanoma = system: SK-MEL-2 melanoma
T-47D breast = system: T-47D breast
SK-MEL-5 melanoma = system: SK-MEL-5 melanoma
SK-OV-3 ovarian = system: SK-OV-3 ovarian
RPMI-8226 leukemia = system: RPMI-8226 leukemia
SK-MEL-28 melanoma = system: SK-MEL-28 melanoma
OVCAR-8 ovarian = system: OVCAR-8 ovarian
SNB-75 CNS = system: SNB-75 CNS
BT-549 breast = system: BT-549 breast
CAKI-1 renal = system: CAKI-1 renal
NCI-H226 lung = system: NCI-H226 lung
MOLT-4 leukemia = system: MOLT-4 leukemia
786-0 renal = system: 786-0 renal
SN12C renal = system: SN12C renal
SF-295 CNS = system: SF-295 CNS
CCRF-CEM leukemia = system: CCRF-CEM leukemia
SF-268 CNS = system: SF-268 CNS
NCI/ADR-RES ovarian = system: NCI/ADR-RES ovarian
OVCAR-5 ovarian = system: OVCAR-5 ovarian
SNB-19 CNS = system: SNB-19 CNS
NCI-H460 lung = system: NCI-H460 lung
UACC-257 melanoma = system: UACC-257 melanoma
A549 NSCLC = system: A549 NSCLC
DU-145 prostate = system: DU-145 prostate
A498 renal = system: A498 renal

## O=C1OCC(c2cccs2)=C1Cl
COLO 205 colon
  GI50: 32.2 µM
  TGI: > 100 µM
LOX IMVI melanoma
  GI50: 89.5 µM
  TGI: > 100 µM
MALME-3M melanoma
  GI50: > 100 µM
  TGI: > 100 µM
NCI-H23 lung
  GI50: 60.6 µM
  TGI: > 100 µM
PC-3 prostate
  GI50: > 100 µM
  TGI: > 100 µM
UO-31 renal
  GI50: 89 µM
  TGI: > 100 µM
KM12 colon
  GI50: 76.3 µM
  TGI: > 100 µM
SF-539 CNS
  GI50: 23.2 µM
  TGI: 86 µM
SW-620 colon
  GI50: > 100 µM
  TGI: > 100 µM
UACC-62 melanoma
  GI50: 19.5 µM
  TGI: > 100 µM
MDA-MB-231 breast
  GI50: 24.7 µM
  TGI: 98.2 µM
K-562 leukemia
  GI50: > 100 µM
  TGI: > 100 µM
OVCAR-3 ovarian
  GI50: 44.8 µM
  TGI: > 100 µM
M14 melanoma
  GI50: > 100 µM
  TGI: > 100 µM
HCT-15 colon
  GI50: 74.2 µM
  TGI: > 100 µM
HL-60(TB) leukemia
  GI50: > 100 µM
  TGI: > 100 µM
ACHN renal
  GI50: 56.7 µM
  TGI: > 100 µM
HOP-92 NSCLC
  GI50: 54.5 µM
  TGI: > 100 µM
MDA-MB-435
  GI50: > 100 µM
  TGI: > 100 µM
EKVX NSCLC
  GI50: 40.5 µM
  TGI: > 100 µM
U251 CNS
  GI50: 52.9 µM
  TGI: > 100 µM
SR leukemia
  GI50: > 100 µM
  TGI: > 100 µM
NCI-H522 lung
  GI50: 42.4 µM
  TGI: > 100 µM
HCT-116 colon
  GI50: > 100 µM
  TGI: > 100 µM
MCF7 breast
  GI50: 39.3 µM
  TGI: > 100 µM
HOP-62 NSCLC
  GI50: > 100 µM
  TGI: > 100 µM
OVCAR-4 ovarian
  GI50: 73.8 µM
  TGI: > 100 µM
HS 578T breast
  GI50: 39 µM
  TGI: > 100 µM
TK-10 renal
  GI50: 54.2 µM
  TGI: > 100 µM
HT29 colon
  GI50: 62.4 µM
  TGI: > 100 µM
RXF 393 renal
  GI50: 53 µM
  TGI: > 100 µM
IGROV1 ovarian
  GI50: > 100 µM
  TGI: > 100 µM
SK-MEL-2 melanoma
  GI50: > 100 µM
  TGI: > 100 µM
T-47D breast
  GI50: 7.47 µM
  TGI: > 100 µM
SK-MEL-5 melanoma
  GI50: 86.3 µM
  TGI: > 100 µM
SK-OV-3 ovarian
  GI50: > 100 µM
  TGI: > 100 µM
RPMI-8226 leukemia
  GI50: 32.2 µM
  TGI: > 100 µM
SK-MEL-28 melanoma
  GI50: 76.8 µM
  TGI: > 100 µM
OVCAR-8 ovarian
  GI50: 90.1 µM
  TGI: > 100 µM
SNB-75 CNS
  GI50: 75.9 µM
  TGI: > 100 µM
BT-549 breast
  GI50: 33.4 µM
  TGI: > 100 µM
CAKI-1 renal
  GI50: > 100 µM
  TGI: > 100 µM
NCI-H226 lung
  GI50: 28.2 µM
  TGI: 95.5 µM
MOLT-4 leukemia
  GI50: > 100 µM
  TGI: > 100 µM
786-0 renal
  GI50: > 100 µM
  TGI: > 100 µM
SN12C renal
  GI50: 26.7 µM
  TGI: > 100 µM
SF-295 CNS
  GI50: 80.9 µM
  TGI: > 100 µM
CCRF-CEM leukemia
  GI50: 84.1 µM
  TGI: > 100 µM
SF-268 CNS
  GI50: > 100 µM
  TGI: > 100 µM
NCI/ADR-RES ovarian
  GI50: 48.1 µM
  TGI: > 100 µM
OVCAR-5 ovarian
  GI50: 76.7 µM
  TGI: > 100 µM
SNB-19 CNS
  GI50: > 100 µM
  TGI: > 100 µM
NCI-H460 lung
  GI50: 56.8 µM
  TGI: > 100 µM
UACC-257 melanoma
  GI50: 41 µM
  TGI: > 100 µM
A549 NSCLC
  GI50: 41.1 µM
  TGI: > 100 µM
DU-145 prostate
  GI50: 26.7 µM
  TGI: > 100 µM
A498 renal
  GI50: 17.6 µM
  TGI: 63.9 µM
